Earlier results, collected in publication PMC10353187, “Discovery of a new potent oxindole multi-kinase inhibitor among a series of designed 3-alkenyl-oxindoles with ancillary carbonic anhydrase inhibitory activity as antiproliferative agents” (BMC Chemistry, 2023).
Read-outs that look alike come from different tables or passages of the source.

What was measured:
[1] = tested on: PDGFR α; conditions: cited from earlier work
[2] = tested on: FGFRI; conditions: cited from earlier work
[3] = tested on: VEGFRIII; conditions: cited from earlier work
[4] = tested on: PDGF; conditions: Fig. 2, reported multi-kinase inhibitors; cited from earlier work
[5] = tested on: FGFRII; conditions: cited from earlier work
[6] = tested on: VEGFRII; conditions: read-out: IC50 VEGFRII; cited from earlier work
[7] = tested on: VEGFRI; conditions: read-out: IC50 VEGFRI; cited from earlier work
[8] = biological target: hCA XII (Homo sapiens, UniProt O43570); set-up: made in house; conditions: reported CAIs, Fig. 1; cited from earlier work
[9] = biological target: hCA IX (Homo sapiens, UniProt Q16790); set-up: made in house; conditions: reported CAIs, Fig. 1; cited from earlier work

hCA XII, sequence (O43570 25-354): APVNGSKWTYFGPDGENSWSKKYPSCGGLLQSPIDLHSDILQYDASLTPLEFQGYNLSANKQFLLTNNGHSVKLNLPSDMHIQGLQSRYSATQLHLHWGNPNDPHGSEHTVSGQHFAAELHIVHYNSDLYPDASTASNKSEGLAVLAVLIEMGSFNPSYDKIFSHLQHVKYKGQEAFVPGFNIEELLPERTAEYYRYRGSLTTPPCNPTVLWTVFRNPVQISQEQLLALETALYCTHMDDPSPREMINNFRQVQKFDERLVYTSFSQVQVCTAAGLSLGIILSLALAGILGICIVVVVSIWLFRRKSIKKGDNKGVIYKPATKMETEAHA

SMILES: COC(=O)c1ccc2c(c1)NC(=O)/C2=C(\Nc1ccc(N(C)C(=O)CN2CCN(C)CC2)cc1)c1ccccc1 [Nintedanib]
- IC50 [1]: 59 nM
- IC50 ([2]; read-out: IC50 FGFRI): 69 nM
- IC50 [3]: 13 nM
- IC50 [4]: 59 nM
- IC50 [5]: 37 nM
- IC50 [6]: 13 nM
- IC50 [7]: 34 nM

SMILES: O=S(=O)(Nc1nc2ccc(Cl)cc2s1)c1ccc(F)cc1 [VI]
- Ki [8]: 85 nM
- Ki [9]: 950 nM

SMILES: O=C(O)c1cc(Sc2ccccn2)cc([N+](=O)[O-])c1 [V]
- Ki [8]: 82.1 nM
- Ki [9]: 18 nM

SMILES: Cc1ccc(C(=O)Nc2ccc(CN3CCN(C)CC3)c(C(F)(F)F)c2)cc1C#Cc1cnc2cccnn12 [ponatinib]
- IC50 ([2]; FGFR-1, inhibitor co-crystallized in PDB ID: 4V01, ref 5 (supplement), read-out: IC50): 0.7 nM
